From patent US20100297123A1, “COMBINATION THERAPY TO INHIBIT T CELL EFFECTOR FUNCTION” (priority 2009, published 2010)

Key:
[1] = tested on: effector CD4 T cells; assay: CFSE proliferation assay of mouse effector CD4 T cells; type: cell-based; conditions: effector CD4 T cells stimulated with anti-CD3/28 and drug(s), FIG. 12B
Description: Proliferation and cell division assays. Cells cultured in 96-well U-bottom plate wells were pulsed with 1 μCi of methyl-[^3H]thymidine (Amersham Biosciences) for 6 h during the last 72 h of stimulation and harvested onto filters (Wallac). Filters were wetted with Betaplate Scintillation fluid (PerkinElmer) and counts per minute read on a 1205 Betaplate Liquid Scintillation Counter (Wallac). For CFSE experiments, cells were labeled with 1 μM CFDA-SE (Sigma-Aldrich) in serum free RPMI 1640 medium for 10 min and washed twice before culturing. CFSE-labeled cells were assayed after 72 h of culture.
GRAIL is expressed during quiescence, lost upon activation. Naïve CD4 T cells were isolated from mouse and stimulated with anti-CD3 and anti-CD28 antibodies in vitro for the indicated number of hours (FIG. 10). Protein was collected and run by Western blot probing for GRAIL and β-actin. Effector CD4 T cells were made by first isolating from naïve mice, then stimulating with anti-CD3/28 for 3 days, split off and rested for 2 more days, then washed and put in fresh media for 2 additional days. Live CD4 T cells were then collected, shown to be at rest, and then activated in the same manner as described above. Protein samples were isolated and probed with anti-GRAII antibody as described in Example 1.
Shown in FIG. 12A, naïve CD4 T cells were labeled with CFSE, a dye that dilutes out with successive cell divisions. The naïve CD4 T cells were stimulated with anti-CD3/28 and the indicated drug(s) and CFSE profiles assessed after 3 days. […] A similar experiment was performed with effector CD4 T cells, prepared as described above.

[2] = tested on: GRAIL; assay: GRAIL western blot of effector CD4 T cells; type: cell-based, mouse; conditions: effector CD4 T cells stimulated with anti-CD3/28, western blot, FIG. 12C
Description: Immunoblots. Whole-cell lysates were made using lysis buffer consisting of 0.5% Nonidet P-40, 100 mM sodium chloride, 0.5 mM EDTA, 20 mM Tris (pH 7.6-8.0), with protease inhibitor mixture (Pierce) and phosphatase inhibitor mixture (Pierce). Protein samples were loaded on 4-15% Tris-HCl gels (Bio-Rad) and separated by SDS-PAGE. Protein was transferred from gel to Immobolin-P polyvinylidene difluoride membrane (Millipore) using Trans-Blot SD Semidry Transfer Apparatus (Bio-Rad) following the manufacturer's instructions. StartingBlock (Tris-buffered saline with 0.05% Tween 20) (Pierce) was used to block membranes and was also used during primary and secondary Ab staining. Secondary Abs were all HRP conjugated (Zymed Laboratories). ECL Plus Western Blotting Reagents (GE Healthcare) were used for chemiluminescent detection of protein. Chemiluminescence signal was exposed onto Amersham Hyperfilm ECL (GE Healthcare). Membranes were stripped using Restore Western Blot Stripping Buffer (Pierce). Densitometry was performed using ImageJ software (National Institutes of Health). […]

[3] = tested on: mouse naive CD4 T cells; assay: CFSE cell division assay of mouse naive CD4 T cells; type: cell-based; conditions: anti-CD3/28 stimulation, CFSE profiles after 3 days
Description: Isolation and stimulation of mouse CD4 T cells. Spleen and lymph nodes were harvested from naive mice and homogenized through a strainer. RBC were lysed from the suspension using red blood cell lysing buffer (Sigma-Aldrich). Lymphocytes were isolated by density centrifugation using Lympholyte-M (Cedarlane Laboratories). CD4+ T cells were sorted via negative selection using an AutoMACS sorter (Miltenyi Biotec). BALB/c CD4+ T cells (5×103) were stimulated in 96-well U-bottom plates with equal numbers of polystyrene latex beads (Interfacial Dynamics) coated with 1.0 μg/ml anti-CD3 (145-2C11; eBioscience) and 0.5 μg/ml anti-CD28 (37.51; eBioscience). […] Anti-IL-2 Ab (JES6-1A12; eBioscience) was used at a concentration of 10 μg/ml. Cells were cultured in RPMI 1640 medium (Life Technologies) supplemented with 10% heat-inactivated FCS (Mediatech), 100 nM sodium pyruvate (Life Technologies), 2 mM L-glutamine (Life Technologies), 100 nM nonessential amino acids (Life Technologies), 100 U/ml penicillin/streptomycin (Life Technologies), and 5 nM 2-ME (Sigma-Aldrich). […]

SMILES	proliferation of effector CD4 T cells (CFSE) [1]	GRAIL retention in effector CD4 T cells [2]	cell division / proliferation by CFSE dilution [3]
O=C(NOCC(O)CO)c1ccc(F)c(F)c1Nc1ccc(I)cc1F (centres unmarked) [PD0325901, N-(2,3-dihydroxypropoxy)-3,4-difluoro-2-(2-fluoro-4-iodophenylamino)benzamide]	does not work alone		
CC(=O)O[C@@H]1[C@@H](OC(C)=O)[C@@H](O)[C@H](Oc2c(-c3ccc(O)cc3)oc3cc(O)cc(O)c3c2=O)O[C@H]1C [SL0101]	does not work alone		
N#CC(=C(/N)Sc1ccccc1N)/C(C#N)=C(\N)Sc1ccccc1N [U0126]	does not inhibit proliferation	does not lead to GRAIL retention	inhibits proliferation
